Laboratory results from ChEMBL document CHEMBL3352491, “Novel semicarbazides and ureas of primaquine with bulky aryl or hydroxyalkyl substituents: synthesis, cytostatic and antioxidative activity” (Eur J Med Chem, 2014).

Tested on: not listed separately
Assay: Cytostatic activity against human MIAPaCa2 cells assessed as growth inhibition after 3 to 4 days by MTT assay
Assay type: functional, cell-based
Conditions: MIA PaCa-2

SMILES | IC50 [µM]
O=C(NC(c1ccccc1)c1ccc(Cl)cc1)n1nnc2ccccc21 (stereo not given) | 110
COc1cc(NC(C)CCCNC(=O)NNC(=O)NCCCC(C)Nc2cc(OC)cc3cccnc23)c2ncccc2c1 (stereo not given) | 69
COc1cc(NC(C)CCCNC(=O)NCCCC(C)Nc2cc(OC)cc3cccnc23)c2ncccc2c1 (stereo not given) | 186
NNC(=O)NC(c1ccccc1)c1ccc(Cl)cc1 (stereo not given) | 178
COc1cc(NC(C)CCCNC(=O)NNC(=O)NCCCCCO)c2ncccc2c1 (stereo not given) | 168

Tested on: not listed separately
Assay: Cytostatic activity against human Molt4/C8 cells assessed as growth inhibition after 3 to 4 days by MTT assay
Assay type: functional, cell-based
Conditions: MOLT-4

SMILES | IC50 [µM]
O=C(NC(c1ccccc1)c1ccc(Cl)cc1)n1nnc2ccccc21 (stereo not given) | 176
COc1cc(NC(C)CCCNC(=O)NNC(=O)NCCCC(C)Nc2cc(OC)cc3cccnc23)c2ncccc2c1 (stereo not given) | ≥ 250
COc1cc(NC(C)CCCNC(=O)NCCCC(C)Nc2cc(OC)cc3cccnc23)c2ncccc2c1 (stereo not given) | > 250
NNC(=O)NC(c1ccccc1)c1ccc(Cl)cc1 (stereo not given) | ≥ 250
COc1cc(NC(C)CCCNC(=O)NNC(=O)NCCCCCO)c2ncccc2c1 (stereo not given) | ≥ 250

Tested on: SW-620
Assay: Cytostatic activity against human SW620 cells assessed as growth inhibition after 3 to 4 days by MTT assay
Assay type: functional, cell-based
Conditions: not given

SMILES | IC50 [µM]
NNC(=O)NC(c1ccccc1)c1ccc(Cl)cc1 (stereo not given) | > 100
COc1cc(NC(C)CCCNC(=O)NNC(=O)NCCCCCO)c2ncccc2c1 (stereo not given) | > 100

The remaining lines, values ahead:

IC50 [µM] | SMILES
23 | O=C(NC(c1ccccc1)c1ccc(Cl)cc1)n1nnc2ccccc21 (stereo not given)
> 100 | COc1cc(NC(C)CCCNC(=O)NNC(=O)NCCCC(C)Nc2cc(OC)cc3cccnc23)c2ncccc2c1 (stereo not given)
> 100 | COc1cc(NC(C)CCCNC(=O)NCCCC(C)Nc2cc(OC)cc3cccnc23)c2ncccc2c1 (stereo not given)

Tested on: L1210
Assay: Cytostatic activity against mouse L1210 cells assessed as growth inhibition after 3 to 4 days by MTT assay
Assay type: functional, cell-based
Conditions: not given

SMILES | IC50 [µM]
NNC(=O)NC(c1ccccc1)c1ccc(Cl)cc1 (stereo not given) | ≥ 250
COc1cc(NC(C)CCCNC(=O)NNC(=O)NCCCCCO)c2ncccc2c1 (stereo not given) | > 250

More lines, now with the values ahead:

IC50 [µM] | SMILES
67 | O=C(NC(c1ccccc1)c1ccc(Cl)cc1)n1nnc2ccccc21 (stereo not given)
92 | COc1cc(NC(C)CCCNC(=O)NNC(=O)NCCCC(C)Nc2cc(OC)cc3cccnc23)c2ncccc2c1 (stereo not given)
92 | COc1cc(NC(C)CCCNC(=O)NCCCC(C)Nc2cc(OC)cc3cccnc23)c2ncccc2c1 (stereo not given)

Tested on: not listed separately
Assay: Antioxidant activity assessed as DPPH scavenging activity at 100 uM after 60 mins by spectrophotometry
Assay type: physicochemical
Conditions: 1 h

SMILES | Activity [%]
NNC(=O)NC(c1ccccc1)c1ccc(Cl)cc1 (stereo not given) | 27
COc1cc(NC(C)CCCNC(=O)NNC(=O)NCCCCCO)c2ncccc2c1 (stereo not given) | 32

The next lines start with the values.

Activity [%] | SMILES
12 | O=C(NC(c1ccccc1)c1ccc(Cl)cc1)n1nnc2ccccc21 (stereo not given)
37 | COc1cc(NC(C)CCCNC(=O)NNC(=O)NCCCC(C)Nc2cc(OC)cc3cccnc23)c2ncccc2c1 (stereo not given)
32 | COc1cc(NC(C)CCCNC(=O)NCCCC(C)Nc2cc(OC)cc3cccnc23)c2ncccc2c1 (stereo not given)

Tested on: not listed separately
Assay: Cytostatic activity against human H460 cells assessed as growth inhibition after 3 to 4 days by MTT assay
Assay type: functional, cell-based
Conditions: NCI-H460

SMILES | IC50 [µM]
O=C(NC(c1ccccc1)c1ccc(Cl)cc1)n1nnc2ccccc21 (stereo not given) | 18
COc1cc(NC(C)CCCNC(=O)NNC(=O)NCCCC(C)Nc2cc(OC)cc3cccnc23)c2ncccc2c1 (stereo not given) | 94
COc1cc(NC(C)CCCNC(=O)NCCCC(C)Nc2cc(OC)cc3cccnc23)c2ncccc2c1 (stereo not given) | > 100
NNC(=O)NC(c1ccccc1)c1ccc(Cl)cc1 (stereo not given) | > 100
COc1cc(NC(C)CCCNC(=O)NNC(=O)NCCCCCO)c2ncccc2c1 (stereo not given) | > 100

Tested on: HeLa
Assay: Cytostatic activity against human HeLa cells assessed as growth inhibition after 3 to 4 days by MTT assay
Assay type: functional, cell-based
Conditions: not given

SMILES | IC50 [µM]
NNC(=O)NC(c1ccccc1)c1ccc(Cl)cc1 (stereo not given) | 182
COc1cc(NC(C)CCCNC(=O)NNC(=O)NCCCCCO)c2ncccc2c1 (stereo not given) | ≥ 250

Further lines, results first:

IC50 [µM] | SMILES
87 | O=C(NC(c1ccccc1)c1ccc(Cl)cc1)n1nnc2ccccc21 (stereo not given)
67 | COc1cc(NC(C)CCCNC(=O)NNC(=O)NCCCC(C)Nc2cc(OC)cc3cccnc23)c2ncccc2c1 (stereo not given)
> 250 | COc1cc(NC(C)CCCNC(=O)NCCCC(C)Nc2cc(OC)cc3cccnc23)c2ncccc2c1 (stereo not given)

Tested on: not listed separately
Assay: Antioxidant activity assessed as inhibition of lipid peroxidation at 100 uM by spectrophotometry
Assay type: physicochemical
Conditions: not given

SMILES | inhibition (INH) [%]
NNC(=O)NC(c1ccccc1)c1ccc(Cl)cc1 (stereo not given) | 52
COc1cc(NC(C)CCCNC(=O)NNC(=O)NCCCCCO)c2ncccc2c1 (stereo not given) | 54

Next, values leading:

inhibition (INH) [%] | SMILES
63 | O=C(NC(c1ccccc1)c1ccc(Cl)cc1)n1nnc2ccccc21 (stereo not given)
65 | COc1cc(NC(C)CCCNC(=O)NNC(=O)NCCCC(C)Nc2cc(OC)cc3cccnc23)c2ncccc2c1 (stereo not given)
89 | COc1cc(NC(C)CCCNC(=O)NCCCC(C)Nc2cc(OC)cc3cccnc23)c2ncccc2c1 (stereo not given)

Tested on: MCF7
Assay: Cytostatic activity against human MCF7 cells assessed as growth inhibition after 3 to 4 days by MTT assay
Assay type: functional, cell-based
Conditions: not given

SMILES | IC50 [µM]
NNC(=O)NC(c1ccccc1)c1ccc(Cl)cc1 (stereo not given) | ≥ 100
COc1cc(NC(C)CCCNC(=O)NNC(=O)NCCCCCO)c2ncccc2c1 (stereo not given) | 4

The remaining lines, values ahead:

IC50 [µM] | SMILES
42 | O=C(NC(c1ccccc1)c1ccc(Cl)cc1)n1nnc2ccccc21 (stereo not given)
0.2 | COc1cc(NC(C)CCCNC(=O)NNC(=O)NCCCC(C)Nc2cc(OC)cc3cccnc23)c2ncccc2c1 (stereo not given)
6 | COc1cc(NC(C)CCCNC(=O)NCCCC(C)Nc2cc(OC)cc3cccnc23)c2ncccc2c1 (stereo not given)

Biological target: Lipoxygenase (Glycine max) (UniProt Q39829)
Assay: Inhibition of soybean LOX using sodium linoleate as substrate at 100 uM by spectrophotometry
Conditions: not given

SMILES | inhibition [%]
NNC(=O)NC(c1ccccc1)c1ccc(Cl)cc1 (stereo not given) | 9
COc1cc(NC(C)CCCNC(=O)NNC(=O)NCCCCCO)c2ncccc2c1 (stereo not given) | 4

Continued, values first:

inhibition [%] | SMILES
28 | O=C(NC(c1ccccc1)c1ccc(Cl)cc1)n1nnc2ccccc21 (stereo not given)
31 | COc1cc(NC(C)CCCNC(=O)NNC(=O)NCCCC(C)Nc2cc(OC)cc3cccnc23)c2ncccc2c1 (stereo not given)
6 | COc1cc(NC(C)CCCNC(=O)NCCCC(C)Nc2cc(OC)cc3cccnc23)c2ncccc2c1 (stereo not given)

Tested on: not listed separately
Assay: Antioxidant activity assessed as DPPH scavenging activity at 100 uM after 20 mins by spectrophotometry
Assay type: physicochemical
Conditions: not given

SMILES | Activity [%]
NNC(=O)NC(c1ccccc1)c1ccc(Cl)cc1 (stereo not given) | 14
COc1cc(NC(C)CCCNC(=O)NNC(=O)NCCCCCO)c2ncccc2c1 (stereo not given) | 14

The remaining lines, values ahead:

Activity [%] | SMILES
24 | O=C(NC(c1ccccc1)c1ccc(Cl)cc1)n1nnc2ccccc21 (stereo not given)
18 | COc1cc(NC(C)CCCNC(=O)NNC(=O)NCCCC(C)Nc2cc(OC)cc3cccnc23)c2ncccc2c1 (stereo not given)
20 | COc1cc(NC(C)CCCNC(=O)NCCCC(C)Nc2cc(OC)cc3cccnc23)c2ncccc2c1 (stereo not given)

Tested on: CCRF-CEM
Assay: Cytostatic activity against human CEM cells assessed as growth inhibition after 3 to 4 days by MTT assay
Assay type: functional, cell-based
Conditions: not given

SMILES | IC50 [µM]
NNC(=O)NC(c1ccccc1)c1ccc(Cl)cc1 (stereo not given) | 217
COc1cc(NC(C)CCCNC(=O)NNC(=O)NCCCCCO)c2ncccc2c1 (stereo not given) | 170

Further lines, results first:

IC50 [µM] | SMILES
116 | O=C(NC(c1ccccc1)c1ccc(Cl)cc1)n1nnc2ccccc21 (stereo not given)
87 | COc1cc(NC(C)CCCNC(=O)NNC(=O)NCCCC(C)Nc2cc(OC)cc3cccnc23)c2ncccc2c1 (stereo not given)
5 | COc1cc(NC(C)CCCNC(=O)NCCCC(C)Nc2cc(OC)cc3cccnc23)c2ncccc2c1 (stereo not given)
